Assay results taken from US20250127906A1, “SMALL-MOLECULE DEGRADERS OF CDK8 AND CDK19” (University of South Carolina, priority 2021, published 2025).

Experiments:
CDK19 [1] = biological target: CDK19 (Homo sapiens, UniProt Q9BWU1); assay: CDK19 degradation in HEK-293 cells (Western blot); type: cell-based; parameters: PROTACs on CDK8 and CDK19 degradation in HEK-293cells; endogenous in cells; host or cells: HEK-293; conditions: concentration degrading CDK19 to half of level in untreated cells
Source text: Furthermore, the degradation of both CDK8 and CDK19 by the PROTACs is also seen to decrease the levels of their binding partner cyclin C (CCNC) (FIG. 2B, D, E), which is known to be protected from proteolytic degradation by its interaction with CDK8 (Barette et al., 2001).
FIGS. 2F and 2G show the effects of different concentrations of potent Senexin C- and BI-1347-based PROTACs on CDK8 and CDK19 degradation in HEK-293cells. Based on these assays, we calculated DC50 values that correspond to PROTAC concentrations inducing degradation of CDK8 and CDK19 to the half of protein level in untreated cells. The corresponding CDK8 DC50 values were 46 nM for IA7843, 6.6 nM for IA7882 and 2.8 nM for IA7886, and CDK19 DC50 values were 1 μM for IA7843, 25 nM for IA7882 and 10 nM for IA7886.

CDK8 [2] = biological target: T1, CDK8 (Homo sapiens, UniProt P49336); assay: CDK8 degradation in Loucy T-cell leukemia cells lacking Cyclin C; type: cell-based; parameters: endogenous in cells; host or cells: Loucy; conditions: Loucy cells (lacking CCNC), 24 hr treatment
Source text: (§1) This cell line, however, is unique in lacking Cyclin C (CCNC), the binding partner of CDK8/19. To test if the absence of CDK8-bound CCNC was responsible for the loss of IA7843 CDK8-degrading activity, we have tested the effect of IA7843 on a derivative of HEK-293cells with CRISPR-mediated knockout of CCNC.

Jurkat cells [3] = assay: Wash-off growth study in Jurkat cells; type: cell-based, human; conditions: pre-treated 200 nM for 8 days, then drug-free vs drug-containing media for 8 days
Method: We also compared the stability of short-term growth inhibition induced by a PROTAC and a kinase inhibitor in a wash-off study in Jurkat cells. In the experiment shown in FIG. 11C, Jurkat cells were pre-treated with 200 nM BI-1347 or IA7886 for 8 days before removal of drug-containing media and further cultured in either drug-containing (200 nM) or drug-free media for 8 days before counting cell numbers. Removal of BI-1347 led to 7.1 fold increase of the cell number while removal of IA7886 increased the cell number only 1.8 fold (FIG. 11C).

CDK8 [4] = biological target: T1, CDK8; assay: CDK8 degradation in HEK-293 cells with CRISPR knockout of CCNC; type: cell-based; parameters: a derivative of HEK-293cells with CRISPR-mediated knockout of CCNC; endogenous in cells; host or cells: HEK-293 with CRISPR knockout of CCNC; conditions: HEK-293 CCNC-knockout cells, 24 hr treatment
Source text: as §1

Jurkat cells [5] = assay: Long-term growth of Jurkat cells under continuous treatment; type: cell-based, human; conditions: 300 nM continuous
Method: The anti-proliferative effects of a PROTAC and a kinase inhibitor were compared in leukemia cell lines. In the long-term treatment experiment shown in FIG. 11A, Jurkat cells (0.1 million cells) were continuously treated with vehicle control (0.1% DMSO), 300 nM BI-1347 or 300 nM IA7886 for 53 days (each condition in biological triplicates). Every 7-8 days, live cells were counted using BioRAD TC20 Automated Cell Counter with trypan blue staining: 0.1 million live cells were passaged to a new T25 flask to propagate under the same treatment conditions. The survival fraction was calculated by dividing the accumulated number of drug-treated cells with the accumulated number of vehicle-treated cells. […] This sustained inhibition property of PROTAC was also observed in MV4-11, a leukemia cell line highly sensitive to CDK8/19 kinase inhibitors.

CDK19 [6] = biological target: T2, CDK19 (Canis lupus familiaris, UniProt A0A8I3NZB9); assay: CDK19 degradation in canine Abrams osteosarcoma cells; type: cell-based
T2 construct: endogenous in cells; host or cells: Abrams (canine osteosarcoma)
T2 sequence (A0A8I3NZB9 1-502): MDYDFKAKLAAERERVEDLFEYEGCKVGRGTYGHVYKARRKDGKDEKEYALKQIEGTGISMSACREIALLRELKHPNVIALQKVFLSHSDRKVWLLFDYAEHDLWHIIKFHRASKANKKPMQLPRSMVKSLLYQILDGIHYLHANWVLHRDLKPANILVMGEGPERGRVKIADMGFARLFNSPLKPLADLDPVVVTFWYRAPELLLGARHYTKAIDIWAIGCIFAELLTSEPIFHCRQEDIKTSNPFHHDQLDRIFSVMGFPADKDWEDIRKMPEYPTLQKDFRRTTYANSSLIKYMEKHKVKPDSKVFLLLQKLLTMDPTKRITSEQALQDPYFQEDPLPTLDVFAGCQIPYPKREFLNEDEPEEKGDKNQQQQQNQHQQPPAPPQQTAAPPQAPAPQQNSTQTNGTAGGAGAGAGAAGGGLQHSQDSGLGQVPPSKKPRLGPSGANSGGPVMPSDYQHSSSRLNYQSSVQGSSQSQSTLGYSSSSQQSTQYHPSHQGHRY
Source text: Both the extent and the kinetics of CDK8 degradation were similar between two cell lines, with the degradation reaching maximum at about 8 hrs of PROTAC treatment.

KMS-12-BM cells = assay: Concentration dependence of KMS-12-BM growth inhibition (CCK-8 assay); type: cell-based; conditions: Homo sapiens, 96 h, over 4 days
Method: Concentration dependence of KMS-12-BM growth inhibition over 4 days was determined for BI-1347 CDK8/19 kinase inhibitor and IA7886 PROTAC using CCK-8 assay (FIG. 13B).

[7] = tested on: pS727 STAT1 and total STAT1; assay: pS727 STAT1 and total STAT1 in CT26 tumors in Balb/c mice; type: in vivo; conditions: oral gavage 20 mg/kg, 2, 8 or 24 hrs after dosing
Method: CT26 cells were injected subcutaneously into syngeneic Balb/c female mice and allowed to grow to 150˜200 mm^3. Tumor-bearing mice then received PROTACs IA7882 or IA7886 by oral gavage at 20 mg/kg in 30% propylene glycol/70% PEG-400 vehicle. Tumors were collected 2, 8 or 24 hrs after dosing and used to measure protein levels of CDK8, pS727 STAT1 and total STAT1 (by western blotting) and mRNA expression of CCL12, a gene that is inhibited by different CDK8/19 inhibitors in CT26 tumors in vivo (by QPCR).

T1 sequence (P49336 whole entry): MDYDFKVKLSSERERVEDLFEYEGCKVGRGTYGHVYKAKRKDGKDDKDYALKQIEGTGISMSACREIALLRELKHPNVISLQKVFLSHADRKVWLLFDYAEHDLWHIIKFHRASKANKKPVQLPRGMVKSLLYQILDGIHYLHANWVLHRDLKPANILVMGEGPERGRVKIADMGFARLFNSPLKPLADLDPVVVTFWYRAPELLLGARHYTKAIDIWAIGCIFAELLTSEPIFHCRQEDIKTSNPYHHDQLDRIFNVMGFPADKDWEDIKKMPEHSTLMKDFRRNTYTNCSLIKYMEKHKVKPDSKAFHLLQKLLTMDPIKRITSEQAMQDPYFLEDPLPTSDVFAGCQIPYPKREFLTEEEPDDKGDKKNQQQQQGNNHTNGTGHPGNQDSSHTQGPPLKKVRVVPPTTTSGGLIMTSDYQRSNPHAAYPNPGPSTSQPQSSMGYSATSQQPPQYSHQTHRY
Sequence of CDK19 (Homo sapiens, UniProt Q9BWU1) (Q9BWU1 whole entry): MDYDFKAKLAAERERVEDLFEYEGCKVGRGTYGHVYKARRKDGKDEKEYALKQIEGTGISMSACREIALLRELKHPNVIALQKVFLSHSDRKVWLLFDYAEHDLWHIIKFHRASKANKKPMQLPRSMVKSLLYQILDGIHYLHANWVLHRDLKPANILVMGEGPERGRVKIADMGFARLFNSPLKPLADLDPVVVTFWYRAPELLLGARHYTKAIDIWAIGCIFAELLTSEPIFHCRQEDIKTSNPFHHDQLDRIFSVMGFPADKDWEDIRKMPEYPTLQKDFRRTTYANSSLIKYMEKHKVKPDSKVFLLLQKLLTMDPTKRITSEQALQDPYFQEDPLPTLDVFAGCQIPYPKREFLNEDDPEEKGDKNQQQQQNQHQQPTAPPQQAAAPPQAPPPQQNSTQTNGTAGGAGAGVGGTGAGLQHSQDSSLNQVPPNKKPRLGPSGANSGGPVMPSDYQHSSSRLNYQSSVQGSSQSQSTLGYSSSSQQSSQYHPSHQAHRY
Sequence of CDK19 (Homo sapiens, UniProt Q9BWU1) (P24863 whole entry partner): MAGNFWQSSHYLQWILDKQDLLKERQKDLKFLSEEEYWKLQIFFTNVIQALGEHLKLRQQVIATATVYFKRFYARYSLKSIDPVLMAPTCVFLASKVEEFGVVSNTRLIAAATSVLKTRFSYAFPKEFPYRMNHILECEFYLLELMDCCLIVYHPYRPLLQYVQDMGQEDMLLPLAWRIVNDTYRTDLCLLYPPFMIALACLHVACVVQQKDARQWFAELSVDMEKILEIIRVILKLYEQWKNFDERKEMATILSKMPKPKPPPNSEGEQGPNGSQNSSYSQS

O=C(CCCNc1cccc2c1C(=O)N(C1CCC(=O)NC1=O)C2=O)NCCCCCCCCCCC(=O)N1CCN(C(=O)Cn2cc(-c3ccc(-c4cncc5ccccc45)cc3)cn2)CC1 (stereo not drawn) [IA7886, 4-[[2-(2,6-dioxo-3-piperidyl)-1,3-dioxo-isoindolin-4-yl]amino]-N-[11-[4-[2-[4-[4-(4-isoquinolyl)phenyl]pyrazol-1-yl]acetyl]piperazin-1-yl]-11-oxo-undecyl]butanamide]
DC50 (CDK19 [1]): 10 nM | CDK8 degradation (in words) (CDK8 [2]): efficiently degraded CDK8 and CDK19 | increase of the cell number upon removal of drug (Jurkat cells [3]): 1.8 fold | CDK8 degradation (in words) (CDK8 [4]): efficiently degraded CDK8 and CDK19 | growth inhibition, first two passages (14 days) (Jurkat cells [5]): had a stronger growth inhibition effect than the PROTAC IA7886 | growth rates in later passages (Jurkat cells [5]; up to 53 days): growth rates of IA-7886 treated cells were decreasing | CDK19 degradation (in words) (CDK19 [6]): induced CDK19 degradation in Abrams cells | IC50 (KMS-12-BM cells): 18 nM | pS727 STAT1 and total STAT1 in tumors [7]: decreased in most of the tumors collected 2 hrs or 8 hrs after dosing
